Where two headings read alike, the source gives them in different places. One block for each molecule: values may come before it.
How the values were obtained:
[1] = Stability of Compound A in a solvent by high-performance liquid chromatography; type: physicochemical; parameters: key to Chemical stability (*2): ◯: the one that did not have a peak other than that of Compound A (there is no degradation product); X: the one that had a peak other than that of Compound A (there is a degradation product); conditions: 50° C. for 1000 minutes, HPLC; for Chemical stability (*2): 2-fold volume
Procedure: (2) In order to investigate the stability of Compound A in a solvent, a 2-fold volume (the volume of a solvent (ml)/the weight of a dissolved substance (g)) of a solvent was added to Compound A, the mixture was maintained at 50° C. for 1000 minutes, and then the stability of the compound was investigated by high-performance liquid chromatography.
(§1) The results of the (1) described above are shown in the column of *1 of Table 2 and the results of the (2) described above are shown in the column of *2 of Table 2.

[2] = Investigation on solvent for crystallization: whether Compound A is dissolved in a solvent; type: physicochemical; conditions: organic solvent or mixture, thermodynamic from solid, 3 ml solvent to 50 mg
Procedure: (1) By adding 3 ml of a solvent to 50 mg of Compound A, it was investigated whether Compound A is dissolved or not.
as §1

[3] = acetonitrile, in terms of the desolvate
From the text: In the present invention, the term “supersaturation concentration: Cx (g/100 g)” means the degree of supersaturation state and it is represented by the following formula. Cx=C−Cs
Where, C (g/100 g) indicates the mass (in terms of the desolvate) of Compound B dissolved in 100 g of a solvent.
Cs (g/100 g) indicates the saturation solubility (in terms of the desolvate) of Compound B dissolved in 100 g of a solvent under the temperature at the time of occurrence of spontaneous nucleation or addition of seed crystal.
A predetermined amount of Compound A was dissolved in a predetermined amount of acetonitrile, crystallization was carried out at various supersaturation concentrations, and the obtained crystals were analyzed with a powder X-ray diffractometer.

[4] = in acetonitrile, stirred for 30 minutes
Procedure: In the present invention, the term “solvent mediated transformation” means transformation of a crystal into another crystal form in the presence of a solvent. For example, it means that at a predetermined temperature, the crystal of Compound B is transformed into the type I crystal of Compound A in a solvent.
The crystal of Compound B was added to acetonitrile in an amount of not less than the supersaturation concentration at a predetermined temperature (in a state where not all the added crystals are dissolved and some crystals are present), stirred for 30 minutes, and then the crystal was filtered and measured with a powder X-ray diffractometer.

- Chemical stability (*2) ([1]; solvent 2-ethoxy ethanol): X
- Chemical stability (*2) ([1]; solvent acetic acid): X
- Chemical stability (*2) ([1]; solvent acetic anhydride): X
- Chemical stability (*2) ([1]; solvent acetonitrile): ◯
- Chemical stability (*2) ([1]; solvent aniline): X
- Chemical stability (*2) ([1]; solvent formic acid): X
- Chemical stability (*2) ([1]; solvent methanol): X
- Chemical stability (*2) ([1]; solvent phenol): X
- solubility ([2]; solvent 1-butanol): ≤ 16.7 mg/mL
- solubility ([2]; solvent 2-ethoxy ethanol, read-out: Solubility (*1)): ≥ 16.7 mg/mL
- solubility ([2]; solvent 2-propanol, read-out: Solubility (*1)): ≤ 16.7 mg/mL
- solubility ([2]; solvent N,N-dimethylformamide, read-out: Solubility (*1)): > 16.7 mg/mL
- solubility ([2]; solvent acetic acid, read-out: Solubility (*1)): > 16.7 mg/mL
- solubility ([2]; solvent acetic anhydride, read-out: Solubility (*1)): ≥ 16.7 mg/mL
- solubility ([2]; solvent acetone, read-out: Solubility (*1)): ≤ 16.7 mg/mL
- solubility ([2]; solvent acetonitrile, read-out: Solubility (*1)): ≥ 16.7 mg/mL
- solubility ([2]; solvent aniline, read-out: Solubility (*1)): > 16.7 mg/mL
- solubility ([2]; solvent benzene, read-out: Solubility (*1)): ≤ 16.7 mg/mL
- solubility ([2]; solvent carbon tetrachloride, read-out: Solubility (*1)): ≤ 16.7 mg/mL
- solubility ([2]; solvent chloroacetonitrile, read-out: Solubility (*1)): > 16.7 mg/mL
- solubility ([2]; solvent chloroform, read-out: Solubility (*1)): ≤ 16.7 mg/mL
- solubility ([2]; solvent cresol, read-out: Solubility (*1)): ≤ 16.7 mg/mL
- solubility ([2]; solvent dibutyl ether, read-out: Solubility (*1)): ≤ 16.7 mg/mL
- solubility ([2]; solvent diisopropyl ether, read-out: Solubility (*1)): ≤ 16.7 mg/mL
- solubility ([2]; solvent dioxane, read-out: Solubility (*1)): ≤ 16.7 mg/mL
- solubility ([2]; solvent diphenyl ether, read-out: Solubility (*1)): ≤ 16.7 mg/mL
- solubility ([2]; solvent ethanol, read-out: Solubility (*1)): ≤ 16.7 mg/mL
- solubility ([2]; solvent ethyl acetate, read-out: Solubility (*1)): ≤ 16.7 mg/mL
- solubility ([2]; solvent formamide, read-out: Solubility (*1)): ≤ 16.7 mg/mL
- solubility ([2]; solvent formic acid, read-out: Solubility (*1)): > 16.7 mg/mL
- solubility ([2]; solvent glycerin, read-out: Solubility (*1)): ≤ 16.7 mg/mL
- solubility ([2]; solvent heptane, read-out: Solubility (*1)): ≤ 16.7 mg/mL
- solubility ([2]; solvent hexane, read-out: Solubility (*1)): ≤ 16.7 mg/mL
- solubility ([2]; solvent isobutyl alcohol, read-out: Solubility (*1)): ≤ 16.7 mg/mL
- solubility ([2]; solvent isopropyl acetate, read-out: Solubility (*1)): ≤ 16.7 mg/mL
- solubility ([2]; solvent ligroin, read-out: Solubility (*1)): ≤ 16.7 mg/mL
- solubility ([2]; solvent methanol, read-out: Solubility (*1)): ≤ 16.7 mg/mL
- solubility ([2]; solvent methyl acetate, read-out: Solubility (*1)): ≤ 16.7 mg/mL
- solubility ([2]; solvent methyl ethyl ketone, read-out: Solubility (*1)): ≤ 16.7 mg/mL
- solubility ([2]; solvent methylcyclohexane, read-out: Solubility (*1)): ≤ 16.7 mg/mL
- solubility ([2]; solvent nitromethane, read-out: Solubility (*1)): > 16.7 mg/mL
- solubility ([2]; solvent p-cymene, read-out: Solubility (*1)): ≤ 16.7 mg/mL
- solubility ([2]; solvent petroleum ether, read-out: Solubility (*1)): ≤ 16.7 mg/mL
- solubility ([2]; solvent phenol, read-out: Solubility (*1)): ≥ 16.7 mg/mL
- solubility ([2]; solvent pyridine, read-out: Solubility (*1)): > 16.7 mg/mL
- solubility ([2]; solvent tetrachloroethylene, read-out: Solubility (*1)): ≤ 16.7 mg/mL
- solubility ([2]; solvent tetrahydrofuran, read-out: Solubility (*1)): ≤ 16.7 mg/mL
- solubility ([2]; solvent toluene, read-out: Solubility (*1)): ≤ 16.7 mg/mL
- solubility ([2]; solvent trichloroethylene, read-out: Solubility (*1)): ≤ 16.7 mg/mL
- solubility ([2]; solvent xylene, read-out: Solubility (*1)): ≤ 16.7 mg/mL
Structure (SMILES): Cc1oc(=O)oc1CN1CCN(c2cc3c(cc2F)c(=O)c(C(=O)O)c2n3C(C)S2)CC1 (stereo not drawn) [Compound A, 6-fluoro-1-methyl-7-[4-(5-methyl-2-oxo-1,3-dioxolen-4-yl)-methyl-1-piperazinyl]-4-oxo-4H-[1,3]thiazeto[3,2-a]quinoline-3-carboxylic acid]
- degradation product in solvent ([1]; formic acid, acetic acid and aniline): a degradation product of Compound A was observed

- Solubility at the time of occurrence of spontaneous nucleation or addition of seed crystals (Cs) ([3]; 0 ° C.): 0.07 g/100 g
- Solubility at the time of occurrence of spontaneous nucleation or addition of seed crystals (Cs) ([3]; 14.3 ° C.): 0.16 g/100 g
- Solubility at the time of occurrence of spontaneous nucleation or addition of seed crystals (Cs) ([3]; 17 ° C.): 0.19 g/100 g
- Solubility at the time of occurrence of spontaneous nucleation or addition of seed crystals (Cs) ([3]; 25 ° C.): 0.29 g/100 g
- Solubility at the time of occurrence of spontaneous nucleation or addition of seed crystals (Cs) ([3]; 27 ° C.): 0.32 g/100 g
- Solubility at the time of occurrence of spontaneous nucleation or addition of seed crystals (Cs) ([3]; 30 ° C.): 0.38 g/100 g
- Solubility at the time of occurrence of spontaneous nucleation or addition of seed crystals (Cs) ([3]; 45 ° C.): 0.79 g/100 g
- Solubility at the time of occurrence of spontaneous nucleation or addition of seed crystals (Cs) ([3]; 50 ° C.): 1.00 g/100 g
- Solubility at the time of occurrence of spontaneous nucleation or addition of seed crystals (Cs) ([3]; 55 ° C.): 1.25 g/100 g
- Solubility at the time of occurrence of spontaneous nucleation or addition of seed crystals (Cs) ([3]; 65 ° C.): 1.92 g/100 g
- Solubility at the time of occurrence of spontaneous nucleation or addition of seed crystals (Cs) ([3]; 70 ° C.): 2.36 g/100 g
- Crystal form ([4]; 25 ° C.): Not changed
- Crystal form ([4]; 40 ° C.): Not changed
- Crystal form ([4]; 55 ° C.): Not changed
- Crystal form ([4]; 67 ° C.): Not changed
Structure (SMILES): CC#N.Cc1oc(=O)oc1CN1CCN(c2cc3c(cc2F)c(=O)c(C(=O)O)c2n3C(C)S2)CC1 (stereo not drawn) [Compound B, 6-fluoro-1-methyl-7-[4-(5-methyl-2-oxo-1,3-dioxolen-4-yl)-methyl-1-piperazinyl]-4-oxo-4H-[1,3]thiazeto[3,2-a]quinoline-3-carboxylic acid acetonitrile solvate]

Source: patent publication US7612205B2, “Crystals of quinolinecarboxylic acid derivative solvate” (Nippon Shinyaku Co., Ltd., priority 2003, dated 2009)
